Results reported in patent US9327020B2, “Trisaccharide derivates, and their use as adjuvants” (Immunovo B.V., priority 2010, dated 2016).

How the values were obtained:
Type in all cases: in vivo, rat
testosterone = assay: Serum testosterone levels (Testosterone EIA) of immunized rats
Protocol: (§1) The sulpho-lipo based adjuvants were tested in different doses varying from 0.008-8 mg per dose. The adjuvants were tested in combination with a GnRH-KLH conjugate with 0.7 μg conjugated GnRH per dose. Adjuvanticity of the adjuvants was compared with the positive control adjuvant, sulpho-lipo-sucrose (disaccharide with one sulphate ester group and seven lauroyl acid ester groups, S1L7-Su) and with negative control adjuvant consisting of an squalane-in-water emulsion without saccharide compound and one group receiving PBS only.
(§2) Male Wistar rats, 10 weeks of age, were housed with 3 rats per cage. Rats had ad libitum access to food en water. Rats were immunized at day 0, 14 and 28, according to the experimental design (Table 2) with 400 μl vaccine comprising 200 μl water phase and 200 μl adjuvant. Two intramuscular injections (100 μl each) were injected at the left and right inner thigh and 2×100 μl was injected subcutaneously in the neck region. Each group consists of 5 rats.
(§3) Blood samples for serum were collected from all animals prior to the immunizations and at day 41 and 56
Serum testosterone levels were measured using a commercially available Testosterone EIA (Beckman Coulter, Woerden, The Netherlands) according to the instructions of the manufacturer.

[1] = Injection site reactions (tissue swelling) after immunization; details: 8 mg
Protocol: as §2
Before vaccination the injection sites were assessed for the presence of abnormalities or existing local reactions. If such abnormalities or local reactions were absent, the animal was injected on that site. After each immunization, injection sites were inspected for tissue swelling. Size of subcutaneous injection sites was measured (diameter in mm). Since the intramuscular injection site reactions in the hind leg is difficult to determine, only the presence of intramuscular injections sites (tissue swelling) was determined and expressed in arbitrary values (present=10 mm, not present=0 mm) Scores of injection site reactions were added up per rat for the four injection sites at each inspection, means per group were calculated The results thereof are presented in FIG. 7.

GnRH = GnRH specific antibody titers by ELISA in serum of rats immunized with GnRH-KLH conjugate plus adjuvant; details: for GnRH antibody titers versus squalane emulsion only (NS): rats that received 8 mg saccharide compound, FIG. 4C; for GnRH antibody titers, dose dependence: male Wistar rats, adjuvant 0.008-8 mg per dose, GnRH-KLH conjugate, FIG. 4A-B; for GnRH antibody titers versus adjuvant without saccharide (NS, group 11): rats treated with 0.08-8 mg sulpho-lipo-trisaccharide
Protocol: as §1
Vaccines 1-13 were formulated by adding equal volume of adjuvant (comprising the saccharide compounds as shown in table 2) to the water phase (containing 0.7 μg conjugated GnRH). Vaccine 14 consists of PBS only. The following vaccines were prepared:
as §2, §3
GnRH specific antibodies were measured by ELISA. Plates (96 wells) were precoated with 0.2% glutardialdehyde in phosphate buffer (pH 5) for 3 hours at room temperature, washed with 0.1 M phosphate buffer (pH 8) and coated with 100 μl per well of a solution containing 10 μg GnRH (Pepscan Presto, Lelystad, The Netherlands) per ml phosphate buffer (pH 8) and incubated for 3 hours at 37° C. Coated plates were washed with 0.05% Tween-80. Serum samples were diluted (1/10) in PEM (1% Tween-80 with 4% horse serum). This dilution was further diluted in the 96-well plate (100 μl per well, 8 steps) and incubated 1 hour at 37° C. After washing with 0.05% Tween-80, 100 μl of goat-anti-rat antiserum conjugated with peroxidase in PEM was added to the wells. Plates were incubated for 1 h at 37° C. and washed 12 times with 0.05% Tween-80. Subsequently, 150 μl of a substrate solution containing 2,2-azino-bis-(3-benzthiazoline-6-sulphonic acid) (ABTS) plus H2O2 was added to the wells of the plates. Plates were incubated for 45 minutes at ambient room temperature and absorbance was measured at 405 nm. Antibody titer was expressed as the 10 log of the dilution factor that gives an optical density of 4 times background (approx. 100).

[2] = Rise of mean body temperature (rectal) after immunization; details: 8 mg; for Mean body temperature (MBT): FIG. 6C
Protocol: as §2
At least once daily clinical observations were made in all animals. Mean body temperature (MBT) was determined for all animals before and after each immunization by rectal temperature. Mean body temperature per group (MBT) are depicted as to preimmunization levels FIG. 6.

[3] = from 0.08 mg sulpho-lipo-trisaccharide onwards, FIG. 5A-B

Mean body temperature (MBT), any increase ([2]; after immunization) | Injection site reactions, course of size ([1]; FIG. 7C) | Injection site reactions, size relative to sulpho-lipo-trisaccharides ([1]; FIG. 7C) | Mean body temperature (MBT) ([2]; 21 hours after vaccination) | Compound | Serum testosterone levels (testosterone; 8 mg, FIG. 5C) | Adverse effects at the site of injection [1] | GnRH antibody titers versus squalane emulsion only (NS) (GnRH) | Serum testosterone levels (testosterone; [3]) | GnRH antibody titers, dose dependence (GnRH) | GnRH antibody titers versus adjuvant without saccharide (NS, group 11) (GnRH) | Injection site reactions at final inspection ([1]; 5 days after immunization) | Mean body temperature (MBT) ([2]; 3 hours post vaccination)
did not induce any increase in MBT |  |  |  | CCCCCCCCCCCC(=O)OC[C@H]1O[C@H](OC[C@H]2O[C@H](O[C@]3(COC(=O)CCCCCCCCCCC)O[C@H](COC(=O)CCCCCCCCCCC)[C@@H](OC(=O)CCCCCCCCCCC)[C@@H]3OC(=O)CCCCCCCCCCC)[C@H](OC(=O)CCCCCCCCCCC)[C@@H](OC(=O)CCCCCCCCCCC)[C@@H]2OC(=O)CCCCCCCCCCC)[C@H](OC(=O)CCCCCCCCCCC)[C@@H](OC(=O)CCCCCCCCCCC)[C@H]1OC(=O)CCCCCCCCCCC [Example L11-Ra, Lipo-Raffinose] | induced decreasing testosterone levels | did not induce any adverse effects at the site of injection | substantially higher |  |  |  |  | 
 |  |  |  | Sulpho-Lipo-Maltotriose [Example S1L10-Ma] |  |  | substantially higher | dramatic decline of serum testosterone levels | dose dependent antibody titers against GnRH | substantially higher |  | 
 |  |  |  | Sulpho-Lipo-Raffinose [Example S1L10-Ra] |  |  | substantially higher | dramatic decline of serum testosterone levels | dose dependent antibody titers against GnRH | substantially higher |  | 
 | increased in size up to day 4 | more than 4 times | still increased | sulpho-lipo-sucrose [Example S1L7-Su-8] |  |  |  |  |  |  | still significant injection site reactions were present | slightly higher increase in MBT than the trisaccharide compounds
